Columns and labels:
NCI-H460 = assay: Antiproliferative activity against human H460 cells after 72 hrs by MTT assay; settings: NCI-H460, 72 h
U-87 MG = assay: Antiproliferative activity against human U87MG cells after 72 hrs by MTT assay
HT-29 = assay: cells; settings: Homo sapiens, HT-29, 72 h
A549 = assay: cells; settings: Homo sapiens, A549, 72 h
Description: Antiproliferative activity against human A549 cells after 72 hrs by MTT assay

MKN-45 = assay: cells; settings: Homo sapiens, MKN-45, 72 h
Description: Antiproliferative activity against human MKN45 cells after 72 hrs by MTT assay

[1] = biological target: Hepatocyte growth factor receptor (Homo sapiens, UniProt P08581); assay: Inhibition of c-Met (unknown origin) using poly (Glu, Tyr) 4:1 as substrate after 30 mins by HTRF assay
[2] = biological target: Mast/stem cell growth factor receptor Kit (Homo sapiens, UniProt P10721); assay: Inhibition of c-Kit (unknown origin) using poly (Glu, Tyr) 4:1 as substrate after 30 mins by HTRF assay
[3] = biological target: Platelet-derived growth factor receptor alpha (Homo sapiens, UniProt P16234); assay: Inhibition of PDGFRalpha (unknown origin) using poly (Glu, Tyr) 4:1 as substrate after 30 mins by HTRF assay
[4] = biological target: Macrophage-stimulating protein receptor (Homo sapiens, UniProt Q04912); assay: Inhibition of Ron (unknown origin) using poly (Glu, Tyr) 4:1 as substrate after 30 mins by HTRF assay
[5] = biological target: Vascular endothelial growth factor receptor 2 (Homo sapiens, UniProt P35968); assay: Inhibition of VEGFR2 (unknown origin) using poly (Glu, Tyr) 4:1 as substrate after 30 mins by HTRF assay
[6] = biological target: T1, Receptor-type tyrosine-protein kinase FLT3 (Homo sapiens, UniProt P36888); assay: Inhibition of Flt3 (unknown origin) using poly (Glu, Tyr) 4:1 as substrate after 30 mins by HTRF assay
T1 sequence (P36888 whole entry): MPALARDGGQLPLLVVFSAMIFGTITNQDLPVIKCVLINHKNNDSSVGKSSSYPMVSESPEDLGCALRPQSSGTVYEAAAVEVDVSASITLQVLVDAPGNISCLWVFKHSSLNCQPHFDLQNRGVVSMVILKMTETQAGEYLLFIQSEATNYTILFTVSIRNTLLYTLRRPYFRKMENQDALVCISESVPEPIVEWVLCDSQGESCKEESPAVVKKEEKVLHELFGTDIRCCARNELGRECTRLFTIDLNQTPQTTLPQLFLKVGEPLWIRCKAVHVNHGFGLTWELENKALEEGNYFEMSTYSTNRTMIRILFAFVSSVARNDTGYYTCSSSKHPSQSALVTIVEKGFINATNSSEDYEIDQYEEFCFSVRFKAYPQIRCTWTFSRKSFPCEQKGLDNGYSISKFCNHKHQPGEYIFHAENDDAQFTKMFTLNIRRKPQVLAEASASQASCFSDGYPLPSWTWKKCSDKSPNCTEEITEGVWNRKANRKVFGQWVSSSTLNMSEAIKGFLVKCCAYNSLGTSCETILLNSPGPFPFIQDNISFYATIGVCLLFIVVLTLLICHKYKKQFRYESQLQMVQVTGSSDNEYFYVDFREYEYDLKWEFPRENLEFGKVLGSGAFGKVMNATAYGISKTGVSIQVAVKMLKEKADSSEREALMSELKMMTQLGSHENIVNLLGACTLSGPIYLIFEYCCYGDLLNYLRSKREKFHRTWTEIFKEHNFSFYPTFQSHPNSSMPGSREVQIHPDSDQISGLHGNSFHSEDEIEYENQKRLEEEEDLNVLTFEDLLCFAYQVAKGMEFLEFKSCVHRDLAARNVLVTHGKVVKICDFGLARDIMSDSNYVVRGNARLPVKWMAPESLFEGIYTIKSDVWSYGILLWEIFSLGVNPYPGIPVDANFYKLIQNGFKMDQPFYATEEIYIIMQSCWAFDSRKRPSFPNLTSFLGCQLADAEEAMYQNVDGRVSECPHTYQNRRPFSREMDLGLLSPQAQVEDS

[7] = biological target: Epidermal growth factor receptor (Homo sapiens, UniProt P00533); assay: Inhibition of EGFR (unknown origin) using poly (Glu, Tyr) 4:1 as substrate after 30 mins by HTRF assay
[8] = biological target: ALK tyrosine kinase receptor (Homo sapiens, UniProt Q9UM73); assay: Inhibition of ALK (unknown origin) using poly (Glu, Tyr) 4:1 as substrate after 30 mins by HTRF assay

Chain of Hepatocyte growth factor receptor (P08581 whole entry): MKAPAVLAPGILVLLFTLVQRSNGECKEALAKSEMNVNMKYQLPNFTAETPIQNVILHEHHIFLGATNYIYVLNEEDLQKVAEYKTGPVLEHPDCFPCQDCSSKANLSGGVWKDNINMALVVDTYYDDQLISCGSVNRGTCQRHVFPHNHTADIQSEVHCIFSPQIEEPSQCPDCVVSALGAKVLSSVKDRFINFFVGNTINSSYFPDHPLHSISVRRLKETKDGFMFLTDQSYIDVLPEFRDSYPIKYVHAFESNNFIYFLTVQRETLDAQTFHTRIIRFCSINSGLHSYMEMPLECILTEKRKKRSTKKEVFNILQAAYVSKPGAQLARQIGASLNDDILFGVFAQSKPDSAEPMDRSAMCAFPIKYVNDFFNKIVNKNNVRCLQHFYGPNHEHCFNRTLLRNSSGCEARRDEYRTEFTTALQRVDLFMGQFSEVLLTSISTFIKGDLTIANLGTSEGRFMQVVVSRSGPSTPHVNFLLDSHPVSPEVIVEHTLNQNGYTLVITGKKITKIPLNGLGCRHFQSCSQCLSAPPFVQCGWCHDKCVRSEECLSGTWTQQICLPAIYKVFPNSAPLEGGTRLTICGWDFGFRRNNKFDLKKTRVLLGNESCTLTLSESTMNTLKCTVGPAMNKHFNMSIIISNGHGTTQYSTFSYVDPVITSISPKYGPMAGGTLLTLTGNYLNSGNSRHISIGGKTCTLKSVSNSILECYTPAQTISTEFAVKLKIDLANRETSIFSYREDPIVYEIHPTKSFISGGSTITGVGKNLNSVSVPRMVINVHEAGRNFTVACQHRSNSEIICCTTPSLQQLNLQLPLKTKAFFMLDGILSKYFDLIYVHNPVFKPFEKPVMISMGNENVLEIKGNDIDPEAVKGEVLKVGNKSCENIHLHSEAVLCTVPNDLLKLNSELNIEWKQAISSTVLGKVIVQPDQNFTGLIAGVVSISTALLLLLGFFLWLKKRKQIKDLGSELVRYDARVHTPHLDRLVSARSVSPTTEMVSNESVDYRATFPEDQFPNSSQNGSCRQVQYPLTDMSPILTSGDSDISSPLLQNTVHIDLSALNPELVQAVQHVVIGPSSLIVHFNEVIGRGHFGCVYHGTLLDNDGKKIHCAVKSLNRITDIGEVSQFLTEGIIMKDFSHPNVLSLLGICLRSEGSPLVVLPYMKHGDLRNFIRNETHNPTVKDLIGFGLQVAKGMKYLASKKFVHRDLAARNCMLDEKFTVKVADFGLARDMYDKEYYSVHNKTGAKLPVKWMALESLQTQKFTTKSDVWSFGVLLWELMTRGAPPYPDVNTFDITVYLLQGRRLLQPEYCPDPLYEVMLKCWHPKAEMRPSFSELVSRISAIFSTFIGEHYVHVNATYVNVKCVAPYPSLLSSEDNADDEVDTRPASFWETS
Chain of Vascular endothelial growth factor receptor 2 (P35968 whole entry): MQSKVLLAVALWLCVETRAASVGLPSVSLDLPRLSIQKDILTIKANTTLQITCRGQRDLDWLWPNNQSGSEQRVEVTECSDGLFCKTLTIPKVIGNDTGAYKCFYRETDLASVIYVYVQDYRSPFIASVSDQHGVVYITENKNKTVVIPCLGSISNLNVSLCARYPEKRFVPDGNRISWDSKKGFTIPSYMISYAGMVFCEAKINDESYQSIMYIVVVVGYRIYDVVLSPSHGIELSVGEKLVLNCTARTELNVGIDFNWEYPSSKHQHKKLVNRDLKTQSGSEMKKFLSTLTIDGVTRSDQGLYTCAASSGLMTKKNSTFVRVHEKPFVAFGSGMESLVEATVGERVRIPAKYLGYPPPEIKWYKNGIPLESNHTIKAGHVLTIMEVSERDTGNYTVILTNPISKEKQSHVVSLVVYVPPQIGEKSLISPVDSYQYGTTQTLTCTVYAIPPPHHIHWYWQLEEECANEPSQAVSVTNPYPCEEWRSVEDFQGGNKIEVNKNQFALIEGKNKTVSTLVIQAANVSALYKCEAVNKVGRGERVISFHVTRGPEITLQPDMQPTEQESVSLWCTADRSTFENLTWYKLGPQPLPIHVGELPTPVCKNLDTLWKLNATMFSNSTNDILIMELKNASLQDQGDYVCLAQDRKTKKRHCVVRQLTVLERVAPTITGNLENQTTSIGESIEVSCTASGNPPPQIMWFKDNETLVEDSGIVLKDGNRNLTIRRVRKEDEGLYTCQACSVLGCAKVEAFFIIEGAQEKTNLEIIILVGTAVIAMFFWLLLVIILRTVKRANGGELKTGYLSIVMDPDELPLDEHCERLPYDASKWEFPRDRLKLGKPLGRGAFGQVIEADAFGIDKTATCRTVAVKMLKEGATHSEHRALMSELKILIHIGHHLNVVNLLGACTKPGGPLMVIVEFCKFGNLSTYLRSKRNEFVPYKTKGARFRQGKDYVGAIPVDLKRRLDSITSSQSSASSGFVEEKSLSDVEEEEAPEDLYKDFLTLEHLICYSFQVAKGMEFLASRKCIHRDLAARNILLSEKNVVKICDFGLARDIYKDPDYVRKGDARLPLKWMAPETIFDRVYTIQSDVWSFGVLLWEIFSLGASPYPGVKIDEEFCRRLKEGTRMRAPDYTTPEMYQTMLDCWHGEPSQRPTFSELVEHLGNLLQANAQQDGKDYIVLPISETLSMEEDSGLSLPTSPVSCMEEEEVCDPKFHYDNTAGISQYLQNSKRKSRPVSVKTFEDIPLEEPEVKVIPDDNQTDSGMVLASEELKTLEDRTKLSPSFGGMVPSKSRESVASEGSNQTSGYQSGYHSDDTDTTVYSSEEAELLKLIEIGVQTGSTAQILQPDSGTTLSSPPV
Chain of Epidermal growth factor receptor (P00533 whole entry): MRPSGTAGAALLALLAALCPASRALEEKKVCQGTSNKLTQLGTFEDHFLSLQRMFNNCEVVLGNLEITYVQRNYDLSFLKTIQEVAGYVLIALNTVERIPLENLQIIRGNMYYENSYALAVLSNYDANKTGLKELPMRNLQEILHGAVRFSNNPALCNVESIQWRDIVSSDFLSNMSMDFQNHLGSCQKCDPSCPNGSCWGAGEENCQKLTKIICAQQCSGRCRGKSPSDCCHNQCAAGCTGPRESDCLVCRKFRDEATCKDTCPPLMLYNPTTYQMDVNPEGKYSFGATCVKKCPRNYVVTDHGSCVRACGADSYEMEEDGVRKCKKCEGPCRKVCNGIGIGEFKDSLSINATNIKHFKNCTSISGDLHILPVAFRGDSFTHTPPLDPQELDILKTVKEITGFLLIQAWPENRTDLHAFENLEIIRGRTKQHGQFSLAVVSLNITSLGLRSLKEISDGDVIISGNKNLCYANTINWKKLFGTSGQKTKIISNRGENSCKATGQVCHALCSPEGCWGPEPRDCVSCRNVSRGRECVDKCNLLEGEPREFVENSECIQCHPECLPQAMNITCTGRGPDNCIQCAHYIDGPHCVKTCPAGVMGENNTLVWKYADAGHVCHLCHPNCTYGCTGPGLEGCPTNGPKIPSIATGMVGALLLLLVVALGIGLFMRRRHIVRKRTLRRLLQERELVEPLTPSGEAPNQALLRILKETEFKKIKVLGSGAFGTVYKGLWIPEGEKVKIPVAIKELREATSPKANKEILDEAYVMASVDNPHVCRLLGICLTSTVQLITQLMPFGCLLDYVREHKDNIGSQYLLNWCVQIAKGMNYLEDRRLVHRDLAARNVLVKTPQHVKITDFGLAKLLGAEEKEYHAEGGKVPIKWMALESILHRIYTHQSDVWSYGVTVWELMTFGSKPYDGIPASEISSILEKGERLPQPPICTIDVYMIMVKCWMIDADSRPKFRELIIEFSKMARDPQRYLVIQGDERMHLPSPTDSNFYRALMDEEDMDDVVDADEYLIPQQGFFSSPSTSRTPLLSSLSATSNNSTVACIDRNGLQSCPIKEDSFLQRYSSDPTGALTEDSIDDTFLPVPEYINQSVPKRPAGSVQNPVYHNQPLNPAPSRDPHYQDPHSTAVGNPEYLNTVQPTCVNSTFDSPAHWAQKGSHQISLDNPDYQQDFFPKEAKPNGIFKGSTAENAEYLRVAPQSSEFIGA
Chain of Platelet-derived growth factor receptor alpha (P16234 whole entry): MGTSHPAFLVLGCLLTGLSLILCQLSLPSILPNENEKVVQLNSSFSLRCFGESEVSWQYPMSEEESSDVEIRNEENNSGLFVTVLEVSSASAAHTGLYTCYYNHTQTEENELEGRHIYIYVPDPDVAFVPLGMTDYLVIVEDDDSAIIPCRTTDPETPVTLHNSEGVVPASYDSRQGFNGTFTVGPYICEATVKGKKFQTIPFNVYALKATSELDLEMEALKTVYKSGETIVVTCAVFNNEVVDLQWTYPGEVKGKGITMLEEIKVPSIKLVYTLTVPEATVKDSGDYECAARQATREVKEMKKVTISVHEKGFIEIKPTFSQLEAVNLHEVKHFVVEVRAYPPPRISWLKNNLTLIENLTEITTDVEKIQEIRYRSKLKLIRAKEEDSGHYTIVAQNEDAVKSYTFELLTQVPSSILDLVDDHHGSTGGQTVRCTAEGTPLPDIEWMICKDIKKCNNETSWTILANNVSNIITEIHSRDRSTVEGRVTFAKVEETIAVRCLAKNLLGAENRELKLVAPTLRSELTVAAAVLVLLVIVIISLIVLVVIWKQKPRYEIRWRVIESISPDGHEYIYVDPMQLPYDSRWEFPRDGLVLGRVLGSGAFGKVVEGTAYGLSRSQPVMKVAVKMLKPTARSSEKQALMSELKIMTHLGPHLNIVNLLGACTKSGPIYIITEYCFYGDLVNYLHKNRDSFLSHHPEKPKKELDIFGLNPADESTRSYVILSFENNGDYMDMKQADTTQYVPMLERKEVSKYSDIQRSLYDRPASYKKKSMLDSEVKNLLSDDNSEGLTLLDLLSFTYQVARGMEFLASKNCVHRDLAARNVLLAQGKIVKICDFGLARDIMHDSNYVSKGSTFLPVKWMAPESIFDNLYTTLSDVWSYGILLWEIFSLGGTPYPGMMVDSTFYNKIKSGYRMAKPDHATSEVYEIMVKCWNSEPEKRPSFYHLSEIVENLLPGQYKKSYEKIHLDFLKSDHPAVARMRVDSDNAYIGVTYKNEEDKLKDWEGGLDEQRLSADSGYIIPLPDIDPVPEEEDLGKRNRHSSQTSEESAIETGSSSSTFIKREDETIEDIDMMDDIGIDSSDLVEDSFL

COc1cc2c(Oc3ccc(NC(=O)c4nc5ccccc5n(-c5ccc(Cl)cc5Cl)c4=O)cc3F)ccnc2cc1OCCCN1CCOCC1 showed an IC50 (NCI-H460) of 640 nM, an IC50 (U-87 MG) of 5040 nM and an IC50 (HT-29) of 590 nM. It also gave an IC50 (A549) of 170 nM and an IC50 (MKN-45) of 75 nM.
For COc1cc2c(Oc3ccc(NC(=O)c4nc5ccccc5n(-c5ccccc5Cl)c4=O)cc3F)ccnc2cc1OCCCN1CCOCC1, the IC50 (NCI-H460) was 140 nM, the IC50 (U-87 MG) was 1500 nM and the IC50 [1] was 3.23 nM. It also gave an IC50 (HT-29) of 150 nM, an IC50 (A549) of 50 nM and an IC50 (MKN-45) of 25 nM.
With COc1cc2c(Oc3ccc(NC(=O)c4nc5ccccc5n(-c5cccc(F)c5)c4=O)cc3F)ccnc2cc1OCCCN1CCOCC1 the IC50 (NCI-H460) was 400 nM, the IC50 (U-87 MG) was 1850 nM and the IC50 (HT-29) was 200 nM. For the same molecule, the IC50 (A549) was 310 nM and the IC50 (MKN-45) was 390 nM.
Work on COc1cc2c(Oc3ccc(NC(=O)c4nc5ccccc5n(-c5cccc(Cl)c5)c4=O)cc3F)ccnc2cc1OCCCN1CCOCC1 yielded an IC50 (NCI-H460) of 530 nM, an IC50 (U-87 MG) of 980 nM and an IC50 (HT-29) of 330 nM. The IC50 (A549) was 240 nM and the IC50 (MKN-45) was 340 nM.
COc1cc2c(Oc3ccc(NC(=O)c4nc5ccccc5n(-c5ccccc5C(F)(F)F)c4=O)cc3F)ccnc2cc1OCCCN1CCOCC1 gave an IC50 (NCI-H460) of 280 nM, an IC50 (U-87 MG) of 1780 nM and an IC50 (HT-29) of 190 nM. It also gave an IC50 (A549) of 220 nM and an IC50 (MKN-45) of 560 nM.
Work on COc1cc2c(Oc3ccc(NC(=O)c4nc5ccccc5n(-c5ccc(OC(F)(F)F)cc5)c4=O)cc3F)ccnc2cc1OCCCN1CCOCC1 yielded an IC50 (NCI-H460) of 290 nM, an IC50 (U-87 MG) of 1220 nM and an IC50 (HT-29) of 200 nM. The IC50 (A549) was 330 nM and the IC50 (MKN-45) was 260 nM.
COc1ccc(-n2c(=O)c(C(=O)Nc3ccc(Oc4ccnc5cc(OCCCN6CCOCC6)c(OC)cc45)c(F)c3)nc3ccccc32)cc1 gave an IC50 (NCI-H460) of 1850 nM, an IC50 (U-87 MG) of over 32000 nM and an IC50 (HT-29) of 690 nM. For the same molecule, the IC50 (A549) was 1720 nM and the IC50 (MKN-45) was 660 nM.
COc1cc2c(Oc3ccc(NC(=O)c4nc5ccccc5n(-c5ccc(F)cc5)c4=O)cc3F)ccnc2cc1OCCCN1CCN(C)CC1 was tested, and the IC50 [1] was 0.9 nM, the IC50 [2] was 2.45 nM and the IC50 [3] was 19.1 nM. For the same molecule, the IC50 [4] was 82.6 nM, the IC50 [5] was 152 nM and the IC50 [6] was 269 nM. For the same molecule, the IC50 [7] was 981 nM and the IC50 [8] was 2840 nM.
COc1cc2c(Oc3ccc(NC(=O)c4nc5ccccc5n(-c5ccc(F)cc5)c4=O)cc3F)ccnc2cc1OCCCN1CCCCC1 showed an IC50 [1] of 8.03 nM.
In the case of COc1cc2c(Oc3ccc(NC(=O)c4nc5ccccc5n(-c5ccc(Cl)cc5)c4=O)cc3F)ccnc2cc1OCCCN1CCOCC1, the IC50 (NCI-H460) is reported as 280 nM, the IC50 (U-87 MG) is reported as 1060 nM and the IC50 [1] is reported as 6.76 nM. For the same molecule, the IC50 (HT-29) was 160 nM, the IC50 (A549) was 42 nM and the IC50 (MKN-45) was 29 nM.
For COc1ccc(-n2c(=O)c(C(=O)Nc3ccc(Oc4ccnc5cc(OCCCN6CCOCC6)c(OC)cc45)c(F)c3)nc3ccccc32)c(OC)c1, the IC50 (NCI-H460) was 2050 nM, the IC50 (U-87 MG) was 16200 nM and the IC50 (HT-29) was 1290 nM. The IC50 (A549) was 5110 nM and the IC50 (MKN-45) was 860 nM.
In the case of COc1cc2c(Oc3ccc(NC(=O)c4nc5ccccc5n(-c5ccc(C)cc5)c4=O)cc3F)ccnc2cc1OCCCN1CCOCC1, the IC50 (NCI-H460) is reported as 1120 nM, the IC50 (U-87 MG) is reported as 4170 nM and the IC50 (HT-29) is reported as 1030 nM. The IC50 (A549) was 2160 nM and the IC50 (MKN-45) was 580 nM.
For COc1cc2c(Oc3ccc(NC(=O)c4nc5ccccc5n(-c5ccccc5F)c4=O)cc3F)ccnc2cc1OCCCN1CCC(C)CC1, the IC50 [1] was 13.1 nM.
For COc1cc2c(Oc3ccc(NC(=O)c4nc5ccccc5n(-c5ccccc5F)c4=O)cc3F)ccnc2cc1OCCCN1CCOCC1, the IC50 (NCI-H460) was 230 nM, the IC50 (U-87 MG) was 650 nM and the IC50 [1] was 4.52 nM. It also gave an IC50 (HT-29) of 170 nM, an IC50 (A549) of 33 nM and an IC50 (MKN-45) of 29 nM.
For COc1cc2c(Oc3ccc(NC(=O)c4nc5ccccc5n(-c5ccc(F)cc5)c4=O)cc3F)ccnc2cc1OCCCN1CCOCC1, the IC50 (NCI-H460) was 140 nM, the IC50 (U-87 MG) was 810 nM and the IC50 [1] was 2.35 nM. The IC50 (HT-29) was 110 nM, the IC50 (A549) was 30 nM and the IC50 (MKN-45) was 26 nM.
COc1cc2c(Oc3ccc(NC(=O)c4nc5ccccc5n(-c5ccccc5)c4=O)cc3F)ccnc2cc1OCCCN1CCOCC1 gave an IC50 (NCI-H460) of 1040 nM, an IC50 (U-87 MG) of 1720 nM and an IC50 (HT-29) of 200 nM. It also gave an IC50 (A549) of 410 nM and an IC50 (MKN-45) of 82 nM.
Molecule COc1cc2c(Oc3ccc(NC(=O)c4nc5ccccc5n(-c5ccc(F)cc5)c4=O)cc3F)ccnc2cc1OCCCN1CCC(C)CC1 has an IC50 [1] of 3.57 nM.
Work on COc1cc2c(Oc3ccc(NC(=O)c4nc5ccccc5n(-c5ccc(Br)cc5)c4=O)cc3F)ccnc2cc1OCCCN1CCOCC1 yielded an IC50 (NCI-H460) of 210 nM, an IC50 (U-87 MG) of 1170 nM and an IC50 (HT-29) of 170 nM. For the same molecule, the IC50 (A549) was 320 nM and the IC50 (MKN-45) was 110 nM.

From ChEMBL document CHEMBL4052772, “Design, synthesis and biological evaluation of novel 4-phenoxyquinoline derivatives containing 3-oxo-3,4-dihydroquinoxaline moiety as c-Met kinase inhibitors” (Bioorg Med Chem, 2017)
